1 compound from patent publication US20240261302A1, “METHODS OF TREATING NEURODEGENERATIVE DISEASES OR CONDITIONS” (FloraScience Inc., priority 2023, published 2024) can be followed below.

Entries after “also recorded” stand apart in the source; their conditions may differ. Like-named read-outs stand apart in the source and are kept apart here.

In data set [1] the test system is HT22 cells. As to the kind of experiment: Cytotoxicity assessment of CBN in HT22 cells. Format: cell-based, mouse. As for the experimental part:
FIGS. 2A-2I show CBN inhibits oxytosis/ferroptosis in HT22 cells. Representative micrographs of HT22 cells following treatment for 16 h: (FIG. 2A) 0.2% ethanol treatment as vehicle control, (FIG. 2B) 5 μM CBN treatment, (FIG. 2C) 5 mM glutamate treatment, (FIG. 2D) 50 nM RSL3 treatment, (FIG. 2E) 5 μM CBN pretreatment for 1 h followed by 5 mM glutamate treatment, (FIG. 2F) 5 μM CBN pretreatment for 1 h followed by 50 nM RSL3 treatment. Micrographs show the representative morphological characteristics of the cell cultures under a given condition of 16 experimental replicates. Scale bar=100 μm. (FIG. 2G) Cells were pretreated with varying concentrations of CBN for 1 h followed by 5 mM glutamate treatment and incubation for 16 h. (FIG. 2H) Cells were pretreated with varying concentrations of CBN for 1 h followed by 50 nM RSL3 treatment and incubation for 16 h. The results are presented as the percentage of the neuroprotective activity relative to control (100%) and Glu/RSL3 (0%). The neuroprotection curves were analyzed by four-parameter regression. (FIG. 2I) Cytotoxicity assessment of CBN in HT22 cells. Cells were treated with increasing concentrations of CBN or 0.2% ethanol vehicle and incubated for 16 h. Data are the mean of 8-16 replicates per condition±SD.

In data set [2] the test system is HT22 cells. As to the kind of experiment: Relative mtDNA copy number (qPCR). The data set is classed as cell-based, mouse. As for the experimental part:
Quantitative Reverse Transcription PCR (qPCR) Analysis. HT22 cells were seeded onto 60 mm dishes at a density of 140,000 cells/dish in DMEM supplemented with 10% FBS and 1% antibiotics. After the desired treatments, total RNA was extracted using the RNeasy Mini Kit (Qiagen, Cat #74104, Hilden, Germany). cDNA was synthesized using SuperScript III First-Strand Synthesis System for qPCR (Invitrogen, Cat #18080051, Carlsbad, CA). Amplification was performed with TaqMan Fast Advanced Master Mix (ThermoFisher Scientific, Cat #4444556, Carlsbad, CA) using a QuantStudio 3 Real-Time PCR Systems (ThermoFisher Scientific, CA). The primer pairs were used as follows: CNR1 (Forward, 5′-[…]-3′; Reverse, 5′-[…]-3′); CNR2 (Forward, 5′-[…]-3′; Reverse, 5′-GCCGGGAGGACAGGATAAT-3′). The expression of the GAPDH gene was measured for normalization. The mouse Mitochondrial DNA Copy Number Kit was used (Detroit R&D, Cat #MCN3, Detroit, MI) according to the manufacturer's instructions. Relative fold change was calculated using the 2^(−ΔΔCt) method. Samples were analyzed in three dishes per independent experiment (n=3).
On the technique in general: Quantitative PCR measures a nucleic acid by following its amplification.

The test system of data set [3] is HT22 mt-GFP cells. The experiment in a line: Mitochondrial Network Morphology Analysis. Format: cell-based, mouse. As for the experimental part: Mitochondrial Network Morphology Analysis. HT22 mt-GFP cells were seeded at 20,000 cells/well on glass coverslips in 24-well plates in DMEM supplemented with 10% FBS and 1% antibiotics. The following day, the cells were treated with the test compounds for the desired period of time. After rinsing with PBS, the cells on glass coverslips were fixed with 4% paraformaldehyde (pH 7.4) for 10 min at 37° C. After additional PBS rinses, the coverslips were mounted onto glass microslides with Fluoro-Gel (Electron Microscopy Sciences, Cat #17985-10). Z-stack images of fixed cells were acquired on a Zeiss LSM 880 rear port laser scanning confocal and Airyscan FAST microscope with ZEN Black software to trace and render cells in 3D. The mitochondrial network morphology parameters (n=20-25 cells/condition) were scored and analyzed with the MiNA module of ImageJ/Fiji software.

The subject of data set [4] is BV2 microglia. The experiment in a line: Mitochondrial Membrane Potential Assay (JC-10) in BV2 cells. The following applies: 4 hr. Format: cell-based. As for the experimental part: BV2 microglial cells were cultured in low glucose DMEM supplemented with GlutaMAX (Invitrogen, Cat #10567014, Carlsbad, CA), 1 mM sodium pyruvate, 10% FBS, and 1% antibiotics including penicillin and streptomycin. Cell cultures were incubated at 37° C. in a fully humidified atmosphere containing 10% CO2.
(§1) Mitochondrial Membrane Potential Assay. Cells seeded at 5,000 cells/well onto 96-well black walled plates were treated with test compounds at the desired concentrations under the culture condition described above. The mitochondrial uncoupler FCCP at 2 μM was used as a reference control. After the desired treatments for 4 hr, the cells were subjected to a JC-10 mitochondrial membrane potential assay according to the manufacturer's instruction. Fluorescence intensities (Ex/Em=490/525 nm, and Ex/Em=540/590 nm) of each well were monitored on a SpectraMax M5 microplate reader. The ratio of fluorescence intensity (590/525 nm) was used to determine the mitochondrial membrane potential (ΔΨm). Decreasing ratios indicate mitochondrial membrane depolarization. Samples were analyzed in eight to sixteen wells per independent experiment (n=8-16). Results were verified by live-cell imaging under a fluorescence microscope.

The subject of data set [5] is HT22 cells. As to the kind of experiment: Mitochondrial Membrane Potential Assay (JC-10) in HT22 cells. Format: cell-based, mouse. The following applies: 5 μM, 4 hr, p<0.0001. As for the experimental part:
as §1

Data set [6] relates to SH-SY5Y neuroblastoma cells. As to the kind of experiment: Mitochondrial Membrane Potential Assay (JC-10) in SH-SY5Y cells. Format: cell-based. The conditions noted are these: 4 hr. As for the experimental part: SH-SY5Y neuroblastoma cells were cultured in 1:1 (v/v) DMEM/F12 medium (Invitrogen, Cat #11330032, Carlsbad, CA) supplemented with 1% non-essential amino acids (Invitrogen, Cat #11140050), 10% FBS, and 1% antibiotics including penicillin and streptomycin. Cell cultures were incubated at 37° C. in a fully humidified atmosphere containing 10% CO2.
as §1

The test system of data set [7] is HT22 cells. As to the kind of experiment: Ferroptosis Assay (RSL3-induced cell death, MTT). The data set is classed as cell-based, mouse. The following applies: for EC50: Mus musculus, HT-22, MTT. The procedure, abridged: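 HT22 cells pretreated 1 hr with compound, then coincubated with 50 nM RSL3 for 16 hr. Viability by MTT absorbance at 570 nm, expressed as percent of vehicle control.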

Data set [8] has as its system HT22 mt-GFP WT cells. As to the kind of experiment: Cell viability after RSL3 with/without FCCP (CyQUANT DNA-based assay, fluorescence microscopy), mt-GFP WT cells. On the set-up: species or system mouse.

Regarding `CCCCCc1cc(O)c2c(c1)OC(C)(C)c1ccc(C)cc1-2` [CBN, 6,6,9-Trimethyl-3-pentyl-benzo[c]chromen-1-ol], the “cellular morphology, compound alone” value in data set [1] (5 μM, 16 hr, microscopic imaging) is reported as “did not induce visual changes in cellular morphology”. Also, the “concentrations at which cytotoxicity was noted” value in data set [1] (HT22 cells, 16 h) was at least 500 µM. Besides, the “dose up to which no apparent cytotoxicity was observed” value in data set [1] (HT22 cells, 16 h) is at most 200 µM. Further, in data set [2] (50 nM RSL3, 16 hr), the “mtDNA copy number with RSL3” value is on record as “sustain mtDNA at the control level”. Further, the “mtDNA copy number, compound alone” value in data set [2] (5 μM) is recorded as “did not induce significant changes”. In addition, the RSL3-induced mitochondrial fragmentation result in data set [3] (50 nM RSL3) is “prevent the mitochondrial fragmentation”. Further, the “individual and summed branch lengths of mitochondria” value in data set [3] (CBN alone) is reported as “significantly increased”. Besides, the “mitochondrial footprints and network branches” value in data set [3] (CBN alone) is reported as “no apparent effects”. Also, the “decrease of ΔΨm” value in data set [4] and in data set [6] was “also observed” each time. For the same compound, the “decrease of mitochondrial membrane potential (ΔΨm)” value in data set [5] is reported as “approximately 17%”. In data set [7] (5 μM pretreatment 1 hr, then 50 nM RSL3 16 hr), the RSL3-induced morphological changes entry is listed as “effectively prevented”. Further, in data set [7] (HT22 cells, CBN 10 μM, data not shown), the “neuroprotection against 50 nM RSL3” value is listed as about 100%. For the same compound, the EC50 in data set [7] (HT22 cells, 1 hr pretreatment, 50 nM RSL3, 16 hr, read-out: Observed EC50 RSL3) is 390 nM; in data set [7] (HT22 cells, 16 hr, read-out: EC50 against oxytosis/ferroptosis induced by 50 nM RSL3 (FIG. 2H)), 690 nM. Moreover, in data set [8] (16 hr), the “protection against RSL3-induced cell death, no FCCP pretreatment” value is “strong and equivalent protection”. Further, in data set [8] (FCCP 5 μM 24 hr, then 16 hr), the “protection against RSL3 after FCCP pretreatment” value is “protected; also recorded: protective”. Further, the “cell numbers after FCCP pretreatment, co-treatment with compound” value in data set [8] (FCCP 24 hr, CBN additional 16 hr) is “did not further change the cell numbers”.
